Assay results from patent US20230137943A1, “PHOTOPROXIMITY PROFILING OF PROTEIN-PROTEIN INTERACTIONS IN CELLS” (The University of Chicago, priority 2019, published 2023).

Key:
[1] = biological target: T1, recombinant SNAP-Tag protein (Homo sapiens, UniProt P16455, A127T/A154D/C150Q/C62A/E30R/G131K/G132T/G153L/K125A/K32I/L33F/M134L/N157G/Q115S/Q116H/R128A/R135S/S151G/S152D/S159E); assay: In vitro photocleavage assay (in-gel fluorescence); format: biochemical; conditions: recombinant SNAP-Tag labeled with probe, 0-10 minutes irradiation
T1 construct: His6 (N)
T1 sequence (P16455 1-182 E30R/K32I/L33F/C62A/Q115S/Q116H/K125A/A127T/R128A/G131K/G132T/M134L/R135S/C150Q/S151G/S152D/G153L/A154D/N157G/S159E): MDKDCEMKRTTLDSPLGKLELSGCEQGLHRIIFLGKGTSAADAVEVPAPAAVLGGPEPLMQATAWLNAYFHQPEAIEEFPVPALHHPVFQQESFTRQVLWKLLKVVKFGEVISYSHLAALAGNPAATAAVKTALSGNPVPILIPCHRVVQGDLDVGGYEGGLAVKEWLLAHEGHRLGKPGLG
Method: In vitro photocleavage assay: Recombinant purified His6-SNAP-Tag (20 μg) was incubated in 200 μL DPBS containing 5 μM PP1 for 1 hour at 37° C. Afterward, the reaction was divided into six 30 μL aliquots, placed on ice, and irradiated with 365 nm light using a SPECTROLINKER™ XL-1500a UV crosslinker (Spectroline, Spectronics, Corporation, Westbury, N.Y., United States of America). Samples were successively removed from irradiation after 0, 0.5, 1, 2.5, 5, 10 minutes of irradiation, diluted with loading buffer, and run on SDS-PAGE gel. Photocleavage was judged by in-gel fluorescence visualized using a ChemiDoc imaging system (Bio-Rad Laboratories, Hercules, Calif., United States of America) scanning for fluorescein.
A first generation P3 chemical proteomic method was designed to facilitate several activities, including: 1) specific probe labeling of POIs in live cells; 2) spatial and temporal control of probe photoactivation and proximal labeling; 3) subsequent enrichment and identification of labeled proteins after cell lysis. […] The BnG targeting element is connected to dual photoreactive elements, a central substituted nitroveratryl carbamate, and a tethered diazirine, which upon irradiation with 365 nm light will simultaneously trigger cleavage and diffusion of the probe away from the SNAP-Tag-POI, as well as unmasking of a highly reactive carbene, respectively. […]

[2] = biological target: T2, SNAP-FLAG/α-FLAG antibody complex (Homo sapiens, UniProt P16455, A127T/A154D/C150Q/C62A/E30R/G131K/G132T/G153L/K125A/K32I/L33F/M134L/N157G/Q115S/Q116H/R128A/R135S/S151G/S152D/S159E); assay: Proximity-labeling assay in cell lysate (anti-biotin / anti-mouse Western blot); format: biochemical; conditions: 500 nM probe
T2 construct: host or cells: clarified lysate of HEK293T cells transiently or stably expressing SnapFlag
T2 sequence (P16455 1-182 E30R/K32I/L33F/C62A/Q115S/Q116H/K125A/A127T/R128A/G131K/G132T/M134L/R135S/C150Q/S151G/S152D/G153L/A154D/N157G/S159E limits assumed): T1 sequence (P16455 1-182 E30R/K32I/L33F/C62A/Q115S/Q116H/K125A/A127T/R128A/G131K/G132T/M134L/R135S/C150Q/S151G/S152D/G153L/A154D/N157G/S159E)
Method: Proximity-labeling assays: Clarified cell lysate from HEK293T cells either transiently (see FIG. 4B) or stably (see FIG. 4C) expressing SNAP-Tag (NEB #N9183S; New England Biolabs, Ipswich, Mass., United States of America) or SnapFlag was normalized to 1 mg/mL and 250 μL aliquots incubated in a microcentrifuge tube with either 500 nM of PP1. PP2, or DMSO for 1 hour at 37° C. Washed anti-FLAG M2 affinity gel, 40 μL of a 50% slurry, was transferred to each reaction in 750 μL of DPBS and the resultant suspension left to rotate overnight at 4° C. (Sigma #A2220; Sigma-Aldrich, St. Louis, Mo., United States of America). Samples were then spun down at 4000×g, supernatant aspirated, and the resin washed with 1M urea in DPBS (1 mL×8) followed by DPBS (1 mL). After being resuspended in 100 μL of DPBS, the samples were placed on ice where they were irradiated with 365 nm light for 10 minutes (SPECTROLINKER™ XL-1500a UV crosslinker, Spectronics Corporation, Westbury, N.Y., United States of America). Once irradiated, the beads were washed with 100 mM pH 3.5 glycine buffer (100 μL×2) and DPBS (1 mL). To elute the remaining SNAP-FLAG and resin-bound FLAG-antibody the beads were boiled for 5 minutes at 95° C. in 20 μL 4×-loading buffer containing 8% SDS and 400 mM DTT. After which, 60 μL of DPBS was added and the suspension boiled at 95° C. for an additional 5 minutes. The samples were then run on SDS-PAGE gel and transferred to nitrocellulose where they were stained with anti-mouse IR dye (Li-cor #926-68072; Li-cor Biosciences, Lincoln, Nebr., United States of America) and streptavidin IR dye (Li-cor #926-32230; Li-cor Biosciences, Lincoln, Nebr., United States of America). Bands corresponding to biotinylated proteins and the FLAG antibody were visualized using an Odyssey infrared imager (Li-cor Biosciences, Lincoln, Nebr., United States of America).
To study if proximal protein interactors could be labeled in response to the dual photoactivation of PP1 in vitro, the interaction between SNAP-FLAG protein and an α-FLAG monoclonal antibody (mAb) was examined in cell lysate. In this assay, proximal biotinylation of both heavy and light chains of the antibody was expected, as well as self-labeling of the SNAP-FLAG protein, under conditions where the protein complex is formed and the PP1 probe is photoactivated. To test this hypothesis in the presence and absence of the protein-protein complex, SNAP protein that contained or lacked the FLAG epitope was treated with PP1 probe, followed by incubation with α-FLAG mAb, bead-based pulldown of the complexes, and subsequent photoactivation. […] The requirement for photoactivation of PP1, as well as a related probe PP2 (see FIG. 6) was tested by forming the SNAP-FLAG/α-FLAG complexes, and then comparing protein biotinylation with or without irradiation.
To study if proximal protein interactors could be labeled in response to the dual photoactivation of AC1 (see FIG. 12A) in vitro, the interaction between SNAP-FLAG protein and an α-FLAG monoclonal antibody (mAb) was examined in cell lysate. Briefly, 250 μL aliquots of cell lysate (HEK293T, SNAP-Flag) was incubated in a microcentrifuge tube with either 500 nM of photoprobe, or DMSO for 1 hour at 37° C. Washed anti-FLAG M2 affinity gel, 40 μL of a 50% slurry, was transferred to each reaction in 750 μL of DPBS and the resultant suspension left to rotate overnight at 4° C. (Sigma #A2220; Sigma-Aldrich, St. Louis, Mo., United States of America). Samples were then spun down at 4000×g, supernatant aspirated, and the resin washed with 1M urea in DPBS (1 mL×8) followed by DPBS (1 mL). After being resuspended in 250 μL of DPBS, the +UV samples were placed on ice where they were irradiated with 365 nm light for 10 minutes (SPECTROLINKER™ XL-1500a UV crosslinker, Spectronics Corporation, Westbury, N.Y., United States of America). Once irradiated, the beads were washed with 1 M Urea (1 mL×2) and DPBS (1 mL×2). […]

With COc1cc(C(C)OC(=O)NCCNC(=S)Nc2ccc3c(c2)C2(OC3=O)c3ccc(O)cc3Oc3cc(O)ccc32)c([N+](=O)[O-])cc1OCCCC(=O)NCc1ccc(COc2nc(N)nc3[nH]cnc23)cc1 (stereo not drawn) [PF-BnG] the “Fluorescence of labeled protein after irradiation at 365 nm (photocleavage)” value [1] was “complete loss of fluorescence within minutes”.
With COc1cc(C(C)OC(=O)NCCCCC(NC(=O)CCC2(C)N=N2)C(=O)NCCNC(=O)CCCCC2SCC3NC(=O)NC32)c([N+](=O)[O-])cc1OCCCC(=O)NCCOCCOC(=O)NCc1ccc(COc2nc(N)nc3[nH]cnc23)cc1 (stereo not drawn) [PP2] the “Proximal labeling of heavy and light chains upon irradiation” value ([2]; 365 nm light 10 minutes (FIG. 4C, FIG. 12B)) was “a discrete biotinylated band was formed on both heavy and light chains” and the “Proximal labeling of heavy/light chain without irradiation” value ([2]; not exposed to 365 nm light (FIG. 4C)) was “No proximal labeling”.
